Test results: patent publication US20140206682A1, “COMPOUNDS AND COMPOSITIONS AS PDGFR KINASE INHIBITORS” (NOVARTIS PHARMACEUTICALS UK LIMITED, priority 2011, published 2014)

Tested on: PDGFR
Assay: Rat A10 cell proliferation assay
Type: cell-based
Conditions: Table 1; Rat A10 cells, recombinant rat PDGF-BB, CellTiter-Glo after 68 hours
In short: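 Rat A10 cells in DMEM with 1% FBS and 10 ng/mL rat PDGF-BB, preincubated 4 h at 37 °C, then exposed to 3-fold serially diluted compound for 68 h. Viability/proliferation read as CellTiter-Glo luminescence.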

Cn1nccc1-c1ccn2c(C(=O)Nc3cc(C(=O)N[C@H](CO)[C@H](O)c4ccccc4)ccc3F)cnc2c1 [F130, N-(5-{[(1R,2R)-1,3-dihydroxy-1-phenylpropan-2-yl]carbamoyl}-2-fluorophenyl)-7-(1-methyl-1H-pyrazol-5-yl)imidazo[1,2-a]pyridine-3-carboxamide]
IC50: 104 nM
